Experimental findings from US20260286302A1, “METHODS FOR PRODUCING A SUPER CENTRAL MEMORY CD8 T CELL SUBTYPE BY POLY(ADP-RIBOSE) POLYMERASE (PARP) INHIBITION AND USES THEREOF” (Georgetown University, priority 2023, published 2026) are described below.

One series concerns WT CD8 T cells. Description: WT CD8 T cells activated with anti-CD3/CD28. Conditions: anti-CD3/CD28 activation in the presence of PARPi, 48 h. The class given is cell-based, mouse.
The subject of series [1] is pMel-1 CD8 T cells. Description: RT-PCR gene expression in TCM^sup versus TCM. The class given is cell-based, mouse. Conditions: TCM^sup vs gp100-induced TCM. An excerpt:
Total RNA was extracted from gp100 or gp100 plus PARPi-activated CD8 T cells using the RNeasy Mini Kit (Qiagen, catalog no. 74004) following the manufacturer's instructions. The extraction included a digestion step with DNase I to prevent subsequent amplification of genomic DNA. One μg total RNA was subjected to single-strand complementary DNA synthesis using High-Capacity cDNA Reverse Transcription Kit (Thermo Fisher, catalog no. 4368814). The Taqman® gene expression assay from Applied Biosystems was used for qrtPCR, and primer pairs (catalog no. 4331182) from Applied Biosystems were used to detect gene expression of Eomes (#Mm01351984-m1), Acot1 (#Mm0162271-S1), Cpt1a (#Mm0123183-m1), Klf2 (#Mm00500486-g1), CD62L (#Mm00441291-m1),CCR7 (#Mm99999130-s1), and Cdkn1b (#Mm00438168-m1). Data were procured using StepOnePlus Real-Time PCR System from Applied Biosystems and normalized to the geometric mean of the housekeeping gene beta-actin (β-actin) (#Mm02619580-g1).

The test system of another series is NAD. As to the kind of experiment: NAD accumulation assay. The class given is cell-based, mouse. Conditions: activated pMel-1 CD8 T cells, 48 h. The procedure:
pMel-1 CD8 T cells were activated with gp100 in the presence or absence of PARPi for 48 h. Cells were washed with cold PBS and pelleted in a microcentrifuge tube by centrifuging at 2,000 rpm for 5 minutes. Cells were lysed with 400 μL of NADH/NAD extraction buffer and then centrifuged at 13,000 g for 10 minutes to remove insoluble material. The supernatants were collected and the levels of NAD in the cell lysates were estimated using the NAD/NADH Quantitation Kit according to the manufacturing kit (Millipore NAD/NADH Quantification Kit Sigma #MAK037).

In series [2] the test system is pMel-1 CD8 T cells. The class given is cell-based. The procedure:
For ACT experiments, CD8+ T cells from pMel-1 mice were activated with gp100 peptide with and without PARPi for 48 h. Based on their CD44 and CD62L expression, cells were sorted by FACS and transferred into 9-day-old B16F10 melanoma-bearing mice tumor-bearing mice (1×10^6 cells per mouse). Tumor growth and survival of mice were monitored.
A total of 0.1-0.2×10^6 cells per sample were stained for Live/Dead staining followed by fixation and permeabilization. […] CD8^+ T cells from tumor samples were stained similarly. Data acquisition was performed on a BD LSR II flow cytometer using the software FACS Diva v.9.0. Results were analyzed using FlowJo software (TreeStar). […]

In series [3] the test system is CD8 T cells of patients with recurrent ovarian cancer. Description: PBMC of ovarian cancer patients pre and post treatment. The class given is in vivo, human. The method, then:
Peripheral blood mononuclear cells (PBMCs) were isolated from whole blood collected in cell preparation tubes (CPT) with sodium citrate and viably frozen until analysis. After thawing, PBMCs were washed with flow buffer (5% BSA, 2 mM EDTA in PBS), incubated with Fc receptor blocking reagent (Miltenyi Biotec) and stained with monoclonal antibodies for 20-30 min at 4° C. For staining for Ki-67 and Granzyme B, cells were fixed and permeabilized using a Fix/Perm buffer (eBiosciences) according to the manufacturer's instructions. Dead cells were excluded from the analysis by using the viability dye, LIVE/DEAD Fixable (Life Technologies). All assays were performed using multiparametric flow cytometry (MACSQuant; Miltenyi Biotec). Data were analyzed using FlowJo software v.10.6.1 (FlowJo, LLC). Flow cytometric data were quantified either as the median fluorescence intensity or as a percentage of cells, as indicated.

On to `O=C(c1cc(Cc2n[nH]c(=O)c3ccccc23)ccc1F)N1CCN(C(=O)C2CC2)CC1` [olaparib], for which the “generation of the CD44hiCD62Lhi population” value in the series with WT CD8 T cells is given as “also seen”. In addition, in the series with pMel-1 CD8 T cells [1], the “FOXO1-regulated memory genes (Cd62l, Klf2, Tcf7, Ccr7)” value was “upregulated”; the “expression of Acot1 and Cpt1α” value is reported as “significantly higher”. Besides, in the series with NAD, the “accumulation of NAD” value is “significantly enhanced”. The “toxicity (percentage of live cells)” value in the series with pMel-1 CD8 T cells [2] (48 h time point) is recorded as “did not show any significant toxicity”. The “phenotype of CD44intCD62Lint intermediate population” value in the series on pMel-1 CD8 T cells [2] (96 h after PARPi treatment) was “shifted more toward CD44^hiCD62L^hi population”. Moreover, the “expression of memory markers Eomes, CCR7 and Bcl2” value in the series with pMel-1 CD8 T cells [2] (CD44hiCD62Lhi population compared to TCM, 48 h) is “significantly increased”. In addition, in the series with pMel-1 CD8 T cells [2] (TCM^sup cells), the “mitochondrial mass (MitoFM)” value is listed as “increase”. In addition, in the series with pMel-1 CD8 T cells [2] (TCM^sup cells vs TCM from gp100), the PGC1α expression entry is listed as “increase”. Besides, the “level of γH2AX” value in the series with pMel-1 CD8 T cells [2] (activated pMel-1 CD8 T cells) is reported as “increase”. For the same compound, the “IFNγ and Gzm B in PARPi-induced CD44hiCD62Lhi cells” value with pMel-1 CD8 T cells [2] (compared to TCM, 48 h) is “significantly higher”. The “IFNγ and Gzm B expression on activated CD8 T cells” value with pMel-1 CD8 T cells [2] (compared to gp100 alone, 48 h) was “significant increase”. Also, in the series on pMel-1 CD8 T cells [2] (gp100-activated, 48 h), the cell cycle entry is recorded as “arrested in the G2/M phase” and the “proliferation capacity (Ki67)” value was “significantly reduced”. In the series on pMel-1 CD8 T cells [2] (gp100-activated, 48 h of treatment, for PARPi concentration-dependent), the “percentage of CD44hiCD62Lhi TCM CD8 T cell population” value was “increase”. Besides, the “frequency of Ki67+ CD8 T cells” value in series [3] (olaparib plus anti-PDL1 (Durvalumab), pre vs post treatment) was “decrease”. In addition, the “CD62L expression in TCM CD8 T cells” value in series [3] (olaparib plus anti-PDL1 (Durvalumab), some patients) is “increased”. Moreover, the “patients with an increase in TCM CD8 T cells” value in series [3] (ovarian cancer patients treated with olaparib plus anti-PDL1 (Durvalumab), pre vs post treatment) is listed as 63%.
